Laboratory results reported in US20070128217A1 (priority 2003, published 2007).

Legend:
[1] = tested on: recombinant human anti-SARS-CoV antibody 03-018; type: binding; design: Binding of antibody 03-018 to linear peptides of the N protein of SARS-CoV Urbani / Binding of antibody 03-018 to looped/cyclic peptides of the N protein of SARS-CoV Urbani: unit not given here
[2] = tested on: control sera (pooled serum of ten healthy LUMC hospital workers; commercial negative donor pooled serum from the Dutch bloodbank); type: binding, human; design: Binding of Control serum LUMC to linear peptides / Binding of Control serum Blood-bank to linear peptides / Binding of Control serum LUMC to looped peptides / Binding of Control Serum Blood-Bank to Looped peptides / Binding of Control serum LUMC to linear peptides of the protein M of SARS-CoV Urbani / Binding of Control serum Blood-bank to linear peptides of the protein M of SARS-CoV Urbani / Binding of Control serum LUMC to looped peptides of the protein M of SARS-CoV Urbani / Binding of Control Serum Blood-Bank to Looped peptides of the protein M of SARS-CoV Urbani: unit not given here
[3] = tested on: antibodies in sera from SARS patients (sera 1a, 1b, 2, 6, 37, 62, London, SARS-yellow, SARS-green); type: binding, human; design: Binding of serum 6 to linear peptides of protein X1 of SARS-CoV Urbani / Binding of serum 37 to linear peptides of protein X1 of SARS-CoV Urbani / Binding of serum 6 to looped/cyclic peptide (PEPSCAN-ELISA) / Binding of serum 37 to looped/cyclic peptide (PEPSCAN-ELISA) / Binding of serum 37 to looped/cyclic peptides of protein X1 of SARS-CoV Urbani / Binding of serum 6 to linear peptides of protein X2 / Binding of serum 37 to linear peptides of protein X2 / Binding of serum 37 to looped/cyclic peptides of protein X2 of SARS-CoV Urbani / Binding of serum 6 to linear peptides of protein M of SARS-CoV Urbani / Binding of serum 37 to linear peptides of protein M of SARS-CoV Urbani / Binding of serum 6 to looped/cyclic peptides of protein M of SARS-CoV Urbani / Binding of serum 37 to looped/cyclic peptides of protein M of SARS-CoV Urbani / Binding of serum 6 to linear peptides of protein X3 of SARS-CoV Urbani / Binding of serum 37 to linear peptides of protein X3 of SARS-CoV Urbani / Binding of serum 37 to looped/cyclic peptides of protein X3 of SARS-CoV Urbani / Binding of serum 6 to linear peptides of protein X4 of SARS-CoV Urbani / Binding of serum 37 to linear peptides of protein X4 of SARS-CoV Urbani / Binding of serum 37 to looped/cyclic peptides of protein X4 of SARS-CoV Urbani / Binding of serum 6 to linear peptides of protein X5 of SARS-CoV Urbani / Binding of serum 37 to linear peptides of protein X5 of SARS-CoV Urbani / Binding of serum 37 to looped/cyclic peptides of protein X5 of SARS-CoV Urbani / Binding of serum 6 to linear peptides of protein N of SARS-CoV Urbani / Binding of serum 37 to linear peptides of protein N of SARS-CoV Urbani / Binding of serum 6 to linear peptide (PEPSCAN-ELISA) / Binding of serum 1a to looped/cyclic peptides of protein N of SARS-CoV Urbani / Binding of serum 1b to looped/cyclic peptides of protein N of SARS-CoV Urbani / Binding of serum 2 to looped/cyclic peptides of protein N of SARS-CoV Urbani / Binding of serum 6 to looped/cyclic peptides of protein N of SARS-CoV Urbani / Binding of serum 37 to looped/cyclic peptides of protein N of SARS-CoV Urbani / Binding of serum 62 to looped/cyclic peptides of protein N of SARS-CoV Urbani / Binding of serum London to looped/cyclic peptides of protein N of SARS-CoV Urbani / Binding of serum SARS-green to looped/cyclic peptides of protein N of SARS-CoV Urbani: unit not given here
[4] = tested on: rabbit serum obtained by immunizing a rabbit with the SARS-CoV strain Frankfurt 1; type: binding; design: Binding of a rabbit serum to linear peptides / Binding of a rabbit serum to looped peptides / Rabbit serum linear peptides / Rabbit serum looped peptides / Binding of a rabbit serum to linear peptides of protein N of SARS-CoV Urbani (Rabbit serum linear peptides) / Binding of a rabbit serum to looped/cyclic peptides of protein N of SARS-CoV Urbani (Rabbit serum looped peptides): unit not given here

Sequence | Binding of antibody 03-018 to linear peptides of the N protein of SARS-CoV Urbani [1] | Binding of antibody 03-018 to looped/cyclic peptides of the N protein of SARS-CoV Urbani [1] | Binding of Control Serum Blood-Bank to Looped peptides [2] | Binding of Control serum Blood-bank to linear peptides [2] | Binding of Control serum LUMC to linear peptides [2] | Binding of Control serum LUMC to looped peptides [2] | Binding of serum 1a to linear peptides of protein N of SARS-CoV Urbani [3] | Binding of serum 1a to looped/cyclic peptides of protein N of SARS-CoV Urbani [3] | Binding of serum 1b to linear peptides of protein N of SARS-CoV Urbani [3] | Binding of serum 1b to looped/cyclic peptides of protein N of SARS-CoV Urbani [3] | Binding of serum 2 to linear peptides of protein N of SARS-CoV Urbani [3] | Binding of serum 2 to looped/cyclic peptides of protein N of SARS-CoV Urbani [3] | Binding of serum 6 to looped/cyclic peptides of protein N of SARS-CoV Urbani [3] | Binding of serum 37 to looped/cyclic peptides of protein N of SARS-CoV Urbani [3] | Binding of serum 62 to looped/cyclic peptides of protein N of SARS-CoV Urbani [3] | Binding of serum London to looped/cyclic peptides of protein N of SARS-CoV Urbani [3] | Binding of serum SARS-green to looped/cyclic peptides of protein N of SARS-CoV Urbani [3] | Binding of serum SARS-yellow to looped/cyclic peptides of protein N of SARS-CoV Urbani [3] | Binding of a rabbit serum to linear peptides of protein N of SARS-CoV Urbani (Rabbit serum linear peptides) [4] | Binding of a rabbit serum to looped/cyclic peptides of protein N of SARS-CoV Urbani (Rabbit serum looped peptides) [4] | other results
FPRGQGVPINTNSGP | 0.1 | 0.2 | 0.6 | 0.8 | 0.7 | 0.5 | 0.2 | 0.3 | 0.1 | 0.2 | 0.3 | 0.4 | 0.2 | 0.5 | 0.4 | 0.4 | 0.4 | 0.4 | 0.2 | 0.2 | Binding of serum 6 to linear peptides of protein N of SARS-CoV Urbani [3]: 0.2; Binding of serum 37 to linear peptides of protein N of SARS-CoV Urbani [3]: 0.7; Binding of serum 62 to linear peptides of protein N of SARS-CoV Urbani [3]: 0.6; Binding of serum London to linear peptides of protein N of SARS-CoV Urbani [3]: 0.5; Binding of serum SARS-green to linear peptides of protein N of SARS-CoV Urbani [3]: 0.3; Binding of serum SARS-yellow to linear peptides of protein N of SARS-CoV Urbani [3]: 0.6
FYAEGSRGGSQASSR | 0.1 | 0.1 | 0.6 | 0.8 | 0.7 | 0.8 | – | 0.3 | – | 0.2 | – | 0.4 | 0.3 | 0.6 | 0.6 | 0.4 | 0.4 | 0.3 | 0.3 | 0.4 | Binding of serum 1a to linear peptide (PEPSCAN-ELISA) [3]: 0.3; Binding of serum 1b to linear peptide (PEPSCAN-ELISA) [3]: 0.2; Binding of serum 2 to linear peptide (PEPSCAN-ELISA) [3]: 0.2; Binding of serum 6 to linear peptide (PEPSCAN-ELISA) [3]: 0.3; Binding of serum 37 to linear peptide (PEPSCAN-ELISA) [3]: 0.7; Binding of serum 62 to linear peptide (PEPSCAN-ELISA) [3]: 0.8; Binding of serum London to linear peptide (PEPSCAN-ELISA) [3]: 0.5; Binding of serum SARS-green to linear peptide (PEPSCAN-ELISA) [3]: 0.4; Binding of serum SARS-yellow to linear peptide (PEPSCAN-ELISA) [3]: 0.6
GALNTPKDHIGTRNP | 0.1 | 0.2 | 0.5 | 0.7 | 0.6 | 0.4 | 0.3 | 0.2 | 0.1 | 0.1 | 0.2 | 0.5 | 0.2 | 0.5 | 0.3 | 0.4 | 0.2 | 0.2 | 0.2 | 0.0 | Binding of serum 6 to linear peptides of protein N of SARS-CoV Urbani [3]: 0.2; Binding of serum 37 to linear peptides of protein N of SARS-CoV Urbani [3]: 0.7; Binding of serum 62 to linear peptides of protein N of SARS-CoV Urbani [3]: 0.7; Binding of serum London to linear peptides of protein N of SARS-CoV Urbani [3]: 0.5; Binding of serum SARS-green to linear peptides of protein N of SARS-CoV Urbani [3]: 0.4; Binding of serum SARS-yellow to linear peptides of protein N of SARS-CoV Urbani [3]: 0.7
